Measured values as given in patent US20130209439A1, “INHIBITORS OF PDE4 BINDING TO HSP20” (THE UNIVERSITY COURT OF THE UNIVERSITY OF GLASGOW, priority 2010, published 2013).
Where no end group is shown, it is not given here.

What was measured:
[1] = system: phospho-HSP20 in HEK293 cells; assay: HSP20 Ser16 phosphorylation in HSP20-transfected HEK293 cells treated with peptide; format: cell-based; conditions: 10 μM peptide, 0-120 min
Description: FIG. 6. Peptide disruption of the PDE4D-HSP20 complex promotes PKA phosphorylation on Ser16. A, Upper panel. HEK293 cells were transfected with HSP20 and PDE4D5. Immunoprecipitation of HSP20 done in the presence increasing concentrations of Peptide 906 (SEQ ID NO: 36) and Peptide control (SEQ ID NO: 37) were probed for PDE4D5. Lower panel. Densitometric analysis of amount of PDE4D5 in HSP20 immunoprecipitates normalised to expression level. Data representative of n=3. B, Purified preparations of HSP20-His and PDE4D5-GST were subject to an ELISA assay containing increasing amounts of ‘Peptide 906’ and ‘peptide control’. C, Upper panel, HSP20 was transfected into HEK293 cells and treated with ‘Peptide 906’ for indicated times. Cellular lysates were blotted for HSP20 and phospho-HSP20. Middle panel, HSP20 was transfected into HEK293 cells and treated with ‘Peptide 906’ or ‘peptide control’ for indicated times. Cellular lysates were blotted for HSP20 and phospho-HSP20. Lower panel, Densitometric analysis of phosphorylation of HSP20 normalised to expression level (n=3).
PolyFect transfection reagent was from Qiagen. […]
HEK293B2 cells are a stable cell line overexpressing the GFP-tagged β2AR were cultured as previously described^48. […] Protein concentration of lysates were determined using the Bradford assay and all samples were equalised for protein concentration. […]

[2] = system: neonatal cardiac myocytes; assay: Cardiac myocyte cell size, manual cross-sectional area; format: cell-based, rat; conditions: 24 hour isoprenaline 10 μM, 30 min pre-treatment with 10 μM peptide
Protocol: FIG. 7. Peptide disruption of the PDE4D-HSP20 complex attenuates the hypertrophic response triggered by constant […]-agonist treatment. A, Upper panel. The area covered by isolated cardiac myocytes was used as a measure of cell size. Lower panel, Graphical depiction of the mean areas (N=100) of cells following 24 hours of indicated treatments. B, impedance measurements were used to calculate continuous normalised cell index using exCELLigence technology Normalised mean (n=4) cell index after 24 hours of indicated treatments.
Cardiomyocytes were plated out on gelatin (Sigma) pre-coated 6-well plates and placed in an incubator at 37° C. and an atmosphere of 5% CO2. After 24 h the cardiomyocytes were cultured in a serum-free condition for 48 h before experiments. The cardiomyocytes were then challenged for 24 h with either 10 μM isoprenaline alone or isoprenaline following a 30 min pre-treatment with 10 μM rolipram, 10 μM bs906 or 10 μM control peptide. Thereafter, cell size was determined on phase-contrast microscope. […] from randomly selected microscope images (400×) were captured digitally and analysed. Cross-sectional area was determined by the following formula: cross-sectional area=(radius)^2×π. Values are expressed as means±SE of five separate culture preparations. A f-test was performed to compare the two groups, and the P values are indicated.

Peptide 906: stearoylated, cell-permeable disrupter peptide of PDE4D5 residues E468-K492 (SEQ ID NO: 36) (ENHHLAVGFKLLQEENSDIFQNLTK; also: stearoylated, site not given here)
phosphorylation of HSP20 at Ser16 [1]: robust and significant increase in the phosphorylation of HSP20 at Ser16
cell size (cross-sectional area) of cardiac myocytes [2]: could be rescued
